Assay results reported in ChEMBL document CHEMBL4342422, “Synthetic strategy and SAR studies of C-glucoside heteroaryls as SGLT2 inhibitor: A review” (Eur J Med Chem, 2019).

Columns and labels:
[1] = system: Homo sapiens; experiment: Antidiabetic activity in human T2DM patients assessed as reduction in HbA1c level at 20 mg, po for 24 weeks relative to control; type: functional; set-up: scale not given: the % may be the effect or the level left
[2] = system: Homo sapiens; experiment: Antidiabetic activity in human T2DM patients assessed as reduction in body weight at 20 mg, po for 24 weeks; type: functional
[3] = Toxicity in human T2DM patients assessed as reduction in blood pressure at 20 mg, po for 24 weeks; type: organism-based; details: in vivo, 4032 h
[4] = system: Homo sapiens; experiment: Antidiabetic activity in human T2DM patients assessed as reduction in HbA1c level at 10 mg, po relative to control; type: functional; set-up: scale not given: the % may be the effect or the level left
[5] = system: Homo sapiens; experiment: Antidiabetic activity in human T2DM patients assessed as reduction in HbA1c level at 25 mg, po relative to control; type: functional; set-up: scale not given: the % may be the effect or the level left
[6] = system: Homo sapiens; experiment: Antidiabetic activity in human T2DM patients assessed as reduction in body weight at 10 to 25 mg, po; type: functional
[7] = Toxicity in human T2DM patients assessed as reduction in systolic blood pressure at 25 mg, po; details: in vivo
[8] = Toxicity in human T2DM patients assessed as reduction in diastolic blood pressure at 25 mg, po; details: in vivo
[9] = Half life in human; type: ADME
[10] = system: Homo sapiens; experiment: Antidiabetic activity in human T2DM patients assessed as reduction in HbA1c level at 50 mg, po for 24 weeks relative to control; type: functional; set-up: scale not given: the % may be the effect or the level left
[11] = system: Homo sapiens; experiment: Antidiabetic activity in human T2DM patients assessed as fasting blood glucose level at 50 mg, po for 24 weeks; type: functional
[12] = system: Homo sapiens; experiment: Antidiabetic activity in human T2DM patients assessed as reduction in body weight at 50 mg, po for 24 weeks; type: functional
[13] = Elimination half life in human at 1 to 25 mg, po; type: ADME; details: in vivo, read-out: LambdaZ
[14] = Tmax in human at 5 mg, po; type: ADME; details: in vivo
[15] = system: Homo sapiens; experiment: Antidiabetic activity in human T2DM patients assessed as reduction in HbA1c level at 25 mg, po for 12 weeks relative to control; type: functional; set-up: scale not given: the % may be the effect or the level left
[16] = Toxicity in human T2DM patients assessed as reduction in systolic blood pressure at 5 mg, po for 4 weeks; type: organism-based; details: in vivo, 672 h
[17] = Toxicity in human T2DM patients assessed as reduction in systolic blood pressure at 10 mg, po for 4 weeks; type: organism-based; details: in vivo, 672 h
[18] = Toxicity in human assessed as urinary tract infection at 200 to 400 mg, po for 52 weeks; type: organism-based; details: in vivo, 8736 h

## CCc1ccc(Cc2ccc3c(c2)[C@]2(OC3)O[C@H](CO)[C@@H](O)[C@H](O)[C@H]2O)cc1 [TOFOGLIFLOZIN ANHYDROUS]
[1]
  Activity: 1.017%
[2]
  Activity: 2.9 kg
[3]
  Activity: 2.1 mmHg

## OC[C@H]1O[C@@H](c2ccc(Cl)c(Cc3ccc(O[C@@H]4CCOC4)cc3)c2)[C@H](O)[C@@H](O)[C@@H]1O
[4]
  Activity: 0.929%
[5]
  Activity: 1.064%
[6]
  Activity: 1.85 kg
[7]
  Activity: 4.19 mmHg
[8]
  Activity: -1.04 mmHg
[9]
  half-life: 1 h

## OC[C@H]1O[C@@H](c2ccc(F)c(Cc3cc4ccccc4s3)c2)[C@H](O)[C@@H](O)[C@@H]1O [IPRAGLIFLOZIN]
[10]
  Activity: 0.79%
[11]
  Activity: 32.89 mg/dL
[12]
  Activity: 1.1 kg

## CCOc1ccc(Cc2cc([C@@H]3S[C@H](CO)[C@@H](O)[C@H](O)[C@H]3O)c(OC)cc2C)cc1 [LUSEOGLIFLOZIN]
[13]
  half-life: 9.2 to 13.8 h

## CCOc1ccc(Cc2cc([C@]34OC[C@](CO)(O3)[C@@H](O)[C@H](O)[C@H]4O)ccc2Cl)cc1 [ERTUGLIFLOZIN]
[14]
  Tmax: 1 h
[15]
  Activity: -0.72%
[16]
  Activity: 2.59 to 2.86 mmHg
[17]
  Activity: 2.59 to 2.86 mmHg

## CCOc1ccc(Cc2cc([C@@H]3O[C@H](SC)[C@@H](O)[C@H](O)[C@H]3O)ccc2Cl)cc1 [SOTAGLIFLOZIN]
[18]
  Activity: 4.2 to 6.9%
